The values below come from the NIST ThermoML archive (doi:10.1016/j.jct.2007.02.009).

Each structure is given as a SMILES string. Numbers after ± are expanded uncertainties.

The conditions of data set [1]: Crystal; Adiabatic calorimetry.
The nature of data set [2]: Molar enthalpy of transition or fusion. Particulars: Crystal; Adiabatic calorimetry.

On to `CC(=O)N(C)C` [N,N-dimethylethanamide], for which, in data set [1], the Triple point temperature is 254.23 ± 0.18 K. In data set [2], the “Molar enthalpy of transition or fusion” value worked out at 2.44 ± 0.0598 kcal/mol.
